Test results from patent publication US20100280031A1, “LIPID FORMULATION OF APOPTOSIS PROMOTER” (priority 2009, published 2010).
Like-named read-outs stand apart in the source and are kept apart here.

Experiments:
[1] = PK study of ABT-737 formulations in rats; format: in vivo, Sprague-Dawley rats; conditions: for AUC(0-inf) / bioavailability / Cmax: rats, 5 mg/kg oral; for bioavailability: read-out: Bioavailability (F %)
Method: (§1) Serial heparinized blood samples were obtained from a tail vein of each animal prior to dosing and 0.25, 0.5, 1, 1.5, 2, 3, 4, 6, 8 and 24 hours after administration.
Analysis was performed on a Sciex API3000™ biomolecular mass analyzer with a heated nebulizer interface. ABT-737 and internal standard peak areas were determined using Sciex MacQuan™ software. The plasma drug concentration of each sample was calculated by least squares linear regression analysis (non-weighted) of the peak area ratio (parent/internal standard) of the spiked plasma standards versus concentration. The plasma concentration data were submitted to multi-exponential curve fitting using WinNonlin 3 (Pharsight).
The area under the plasma concentration-time curve from 0 to t hours (time of the last measured plasma concentration) after dosing (AUC0-t) was calculated using the linear trapezoidal rule for the plasma concentration-time profiles. The residual area extrapolated to infinity, determined as the final measured plasma concentration (Ct) divided by the terminal elimination rate constant (β), was added to AUC0-t to produce the total area under the curve (AUC0-∞). The bioavailability was calculated as the dose-normalized AUC0-∞ from oral dosing divided by the corresponding value derived from i.v. (intravenous) dosing, administered as a slow bolus to a jugular vein under light ether anesthetic.

[2] = PK study of ABT-263 bis-HCl liquid-filled capsules in non-fasted dogs; format: in vivo, beagle dogs
solubility in water = conditions: pH 2
Text: It will be recognized that aqueous solubility of many compounds is pH-dependent; in the case of such compounds the solubility of interest herein is at a physiologically relevant pH, for example a pH of about 1 to about 8.

[3] = PK study of ABT-263 free base formulations in rats; format: in vivo, Sprague-Dawley rats; conditions: fasted rats, 5 mg/kg oral
Method: as §1

[4] = PK study of ABT-263 free base formulations in fasted dogs; format: in vivo, beagle dogs; conditions: oral
Method: Serial heparinized blood samples were obtained from a jugular vein of each animal prior to dosing and 0.25, 0.5, 1, 1.5, 2, 3, 4, 6, 9, 12, 15 and 24 hours after administration. […] The bioavailability was calculated as the dose-normalized AUC0-∞ from oral dosing divided by the corresponding value derived from i.v. (intravenous) dosing, administered as a slow bolus to a cephalic vein.

[5] = food-effect PK study of ABT-263 free base formulation in dogs; format: in vivo, beagle dogs; conditions: 10 mg/kg oral, 20 mg/ml, carrier PEG 400/Phosal 50 PG/DMSO (60:30:10)
[6] = PK study of ABT-263 free base liquid-filled capsules in non-fasted dogs; format: in vivo, beagle dogs
[7] = Phase 1 clinical PK study of ABT-263 bis-HCl formulation (Formulation C); format: in vivo, human; conditions: humans
Method: The formulation was prepared immediately or shortly (not more than about one month) prior to oral administration.
The study had several cycles, depending on the subjects' response to the drug.
The dose doubled until one grade 3 or two grade 2 toxicities occurred, after which dose escalated in 25-40% increments. Platelet levels were monitored and reviewed to inform dose escalation decisions.
Blood and plasma samples were protected from direct sunlight during collection, processing and storage. The timing of blood collections took priority over other scheduled study activities except for dosing. The order of blood collections was maintained to the minute such that the time intervals relative to the preceding dosing were the same for all subjects.
Blood samples were collected by venipuncture into 3-ml evacuated potassium EDTA-containing collection tubes during Cycle 1 Day −3, prior to dosing (0 hour) and at 0.5, 1, 2, 3, 4, 6, 8, 24, 48 and 72 (Day 1, predose sample) hours after dosing; Day 1, at 0.5, 1, 2, 3, 4, 6, 8 and 24 (Day 2, pre-dose sample) hours after dosing; Day 14, prior to dosing (0 hour) and at 0.5, 1, 2, 3, 4, 6 and 8 hours after dosing. Additional blood samples were collected at 0 hour (pre-dose) on Day 14, Cycle 2 through Cycle 6. Sufficient blood was collected to provide approximately 1 ml plasma from each sample. A total of 27 blood samples (approximately 81 ml) were collected per subject for pharmacokinetic analysis during Cycle 1 and one additional blood sample per subject per cycle, up to Cycle 6.

[8] = Sprague-Dawley, rat, plasma, po, 5 mg/kg, carrier D5W/PG/DMSO/Tween (70:20:5:5), 5 mg/ml
[9] = Sprague-Dawley, rat, plasma, po, 5 mg/kg, carrier Imwitor 380 (unneutralized)/ethanol (95:5), 10 mg/ml
[10] = Sprague-Dawley, rat, plasma, po, 5 mg/kg, carrier Phosal 50 PG/ethanol (90:10), 50 mg/ml
[11] = Sprague-Dawley, rat, plasma, po, 5 mg/kg, carrier Phosal 53 MCT/ethanol (90:10), 10 mg/ml
[12] = carrier Labrasol/Tween 20 (70:30), 50 mg/dog
[13] = carrier Phosal 53 MCT, 50 mg/dog
[14] = carrier Phosal 53 MCT/Labrasol (70:30), 50 mg/dog
[15] = carrier Phosal 53 MCT/Tween 20 (80:20), 50 mg/dog
[16] = carrier PEG 400/DMSO (90:10), 2 mg/ml
[17] = carrier PEG 400/Phosal 50 PG/DMSO (60:30:10), 5 mg/ml
[18] = carrier PEG 400/DMSO (90:10), 2.5 mg/kg, 5 mg/ml
[19] = carrier PEG 400/DMSO (90:10), 5 mg/kg, 10 mg/ml
[20] = carrier PEG 400/DMSO (90:10), 10 mg/kg, 20 mg/ml
[21] = carrier PEG 400/Phosal 50 PG/DMSO (60:30:10), 5 mg/kg, 10 mg/ml
[22] = carrier PEG 400/Phosal 50 PG/DMSO (60:30:10), 10 mg/kg, 20 mg/ml
[23] = liquid-filled capsules, carrier Capmul PG-8, 50 mg/dog
[24] = liquid-filled capsules, carrier Capmul PG-8/Cremophor EL (90:10), 50 mg/dog
[25] = liquid-filled capsules, carrier Phosal 53 MCT/PEG 400 (70:30), 50 mg/dog
[26] = liquid-filled capsules, carrier oleic acid/PEG 400/Cremophor EL (80:10:10), 50 mg/dog
[27] = oral, carrier PEG 400/Phosal 50 PG/DMSO (60:30:10), 20 mg/kg
[28] = 315 mg/day, Day 14, non-fasting

With CN(C)CC[C@H](CSc1ccccc1)Nc1ccc(S(=O)(=O)NC(=O)c2ccc(N3CCN(Cc4ccccc4-c4ccc(Cl)cc4)CC3)cc2)cc1[N+](=O)[O-] [ABT-737, N-(4-(4-((4′-chloro-(1,1′-biphenyl)-2-yl)methyl)piperazin-1-yl)benzoyl)-4-(((1R)-3-(dimethylamino)-1-((phenylsulfanyl)methyl)propyl)amino)-3-nitrobenzene-sulfonamide] the AUC(0-inf) [1, 8] was 230 ng·h/mL, the bioavailability [1, 8] was 5.9% and the AUC(0-inf) [1, 9] was 150 ng·h/mL. It also gave a bioavailability [1, 9] of 3.9%, a Cmax ([1]; Sprague-Dawley, rat, plasma, po, 5 mg/kg, carrier Imwitor 380 (unneutralized)/ethanol (95:5), 10 mg/ml, read-out: Cmax) of 29 ng/mL and an AUC(0-inf) [1, 10] of 60 ng·h/mL. For the same molecule, the bioavailability [1, 10] was 1.5%, the Cmax ([1]; Sprague-Dawley, rat, plasma, po, 5 mg/kg, carrier Phosal 50 PG/ethanol (90:10), 50 mg/ml, read-out: Cmax) was 24 ng/mL and the AUC(0-inf) [1, 11] was 130 ng·h/mL. The bioavailability [1, 11] was 3.3%, the Cmax ([1]; Sprague-Dawley, rat, plasma, po, 5 mg/kg, carrier Phosal 53 MCT/ethanol (90:10), 10 mg/ml, read-out: Cmax) was 28 ng/mL and the Cmax ([1]; carrier D5W/PG/DMSO/Tween (70:20:5:5), 5 mg/ml) was 32 ng/mL. For the same molecule, the Bioavailability in rats ([1]; regardless of the carrier) was “extremely low”.

With CC1(C)CCC(c2ccc(Cl)cc2)=C(CN2CCN(c3ccc(C(=O)NS(=O)(=O)c4ccc(N[C@H](CCN5CCOCC5)CSc5ccccc5)c(S(=O)(=O)C(F)(F)F)c4)cc3)CC2)C1.Cl.Cl [ABT-263 bis-HCl] the “Bioavailability (F %)” value ([2]; carrier Labrasol, […]) was 29.4%, the “AUC0-∞” value [2, 12] was 84800 ng·h/mL and the “Bioavailability (F %)” value [2, 12] was 39.0%. For the same molecule, the Cmax [2, 12] was 10310 ng/mL, the “AUC0-∞” value [2, 13] was 89700 ng·h/mL and the “Bioavailability (F %)” value [2, 13] was 49.0%. The Cmax [2, 13] was 9250 ng/mL, the “AUC0-∞” value [2, 14] was 94300 ng·h/mL and the “Bioavailability (F %)” value [2, 14] was 38.5%. The Cmax [2, 14] was 15830 ng/mL, the “Bioavailability (F %)” value ([2]; carrier Phosal 53 MCT/PEG 400 (70:30), […]) was 40.8% and the “AUC0-∞” value [2, 15] was 89900 ng·h/mL. The “Bioavailability (F %)” value [2, 15] was 48.5% and the Cmax [2, 15] was 14020 ng/mL.

With CC1(C)CCC(c2ccc(Cl)cc2)=C(CN2CCN(c3ccc(C(=O)NS(=O)(=O)c4ccc(N[C@H](CCN5CCOCC5)CSc5ccccc5)c(S(=O)(=O)C(F)(F)F)c4)cc3)CC2)C1 [ABT-263] the solubility in water (solubility in water) was “less than 4 μg/ml”, the “AUC0-∞” value [3, 16] was 7530 ng·h/mL and the “Bioavailability (F %)” value [3, 16] was 21.6%. For the same molecule, the Cmax [3, 16] was 670 ng/mL, the “AUC0-∞” value [3, 17] was 9960 ng·h/mL and the “Bioavailability (F %)” value [3, 17] was 28.5%. For the same molecule, the Cmax [3, 17] was 1050 ng/mL, the “AUC0-∞” value [4, 18] was 27100 ng·h/mL and the Cmax [4, 18] was 3670 ng/mL. The “AUC0-∞” value [4, 19] was 39800 ng·h/mL, the “Bioavailability (F %)” value [4, 19] was 16.5% and the Cmax [4, 19] was 6750 ng/mL. For the same molecule, the “AUC0-∞” value [4, 20] was 58300 ng·h/mL, the “Bioavailability (F %)” value [4, 20] was 12.1% and the Cmax [4, 20] was 8460 ng/mL. The “AUC0-∞” value [4, 21] was 115100 ng·h/mL, the Cmax [4, 21] was 13220 ng/mL and the “AUC0-∞” value [4, 22] was 173900 ng·h/mL. The “Bioavailability (F %)” value [4, 22] was 36.0%, the Cmax [4, 22] was 21600 ng/mL and the “AUC0-∞” value ([5]; fasted dogs) was 156100 ng·h/mL. For the same molecule, the Cmax ([5]; fasted dogs) was 20300 ng/mL, the “Bioavailability (F %)” value ([5]; fasted dogs, 10 mg/kg) was 32.3% and the “AUC0-∞” value ([5]; non-fasted dogs) was 255600 ng·h/mL. The “Bioavailability (F %)” value ([5]; non-fasted dogs) was 52.9%, the Cmax ([5]; non-fasted dogs) was 23500 ng/mL and the “AUC0-∞” value [6, 23] was 59100 ng·h/mL. The “Bioavailability (F %)” value [6, 23] was 24.9%, the Cmax [6, 23] was 6400 ng/mL and the “AUC0-∞” value [6, 24] was 63300 ng·h/mL. The “Bioavailability (F %)” value [6, 24] was 27.7%, the Cmax [6, 24] was 10610 ng/mL and the “AUC0-∞” value [6, 25] was 119800 ng·h/mL. The “Bioavailability (F %)” value [6, 25] was 53.0%, the Cmax [6, 25] was 21500 ng/mL and the “AUC0-∞” value [6, 26] was 43800 ng·h/mL. For the same molecule, the “Bioavailability (F %)” value [6, 26] was 20.5%, the Cmax [6, 26] was 6840 ng/mL and the “AUC0-∞” value [6, 27] was 537200 ng·h/mL. For the same molecule, the “Bioavailability (F %)” value [6, 27] was 51.3%, the Cmax [6, 27] was 47300 ng/mL and the “plasma concentration at steady state (peak)” value [7, 28] was “about 5.5 μg/ml”. For the same molecule, the “plasma concentration at steady state (trough)” value [7, 28] was “about 3 μg/ml” and the Tmax ([7]; single 315 mg dose, both fasting and non-fasting (FIG. 2)) was “around 8 hours”.
